Broadly, the IC50 is the concentration at which inhibition is half-maximal.

Activity calls are given as the source filed them. How the calls were made is not given here.

The target in this test is Tyrosine-protein kinase ABL1 (Homo sapiens) + Ras and Rab interactor 1 (Homo sapiens) (UniProt P00519+Q13671). Briefly: concentration response for Abl-Rin1 disruption – biochemical, TR-FRET, dose response, late-stage follow-up (AID 602398). Particulars: TR-FRET Rin1-Abl binding. A general note: TR-FRET usually uses a lanthanide donor and a delayed reading to cut background.
Chain of Tyrosine-protein kinase ABL1 (Homo sapiens) + Ras and Rab interactor 1 (Homo sapiens) (P00519 whole entry, looked up): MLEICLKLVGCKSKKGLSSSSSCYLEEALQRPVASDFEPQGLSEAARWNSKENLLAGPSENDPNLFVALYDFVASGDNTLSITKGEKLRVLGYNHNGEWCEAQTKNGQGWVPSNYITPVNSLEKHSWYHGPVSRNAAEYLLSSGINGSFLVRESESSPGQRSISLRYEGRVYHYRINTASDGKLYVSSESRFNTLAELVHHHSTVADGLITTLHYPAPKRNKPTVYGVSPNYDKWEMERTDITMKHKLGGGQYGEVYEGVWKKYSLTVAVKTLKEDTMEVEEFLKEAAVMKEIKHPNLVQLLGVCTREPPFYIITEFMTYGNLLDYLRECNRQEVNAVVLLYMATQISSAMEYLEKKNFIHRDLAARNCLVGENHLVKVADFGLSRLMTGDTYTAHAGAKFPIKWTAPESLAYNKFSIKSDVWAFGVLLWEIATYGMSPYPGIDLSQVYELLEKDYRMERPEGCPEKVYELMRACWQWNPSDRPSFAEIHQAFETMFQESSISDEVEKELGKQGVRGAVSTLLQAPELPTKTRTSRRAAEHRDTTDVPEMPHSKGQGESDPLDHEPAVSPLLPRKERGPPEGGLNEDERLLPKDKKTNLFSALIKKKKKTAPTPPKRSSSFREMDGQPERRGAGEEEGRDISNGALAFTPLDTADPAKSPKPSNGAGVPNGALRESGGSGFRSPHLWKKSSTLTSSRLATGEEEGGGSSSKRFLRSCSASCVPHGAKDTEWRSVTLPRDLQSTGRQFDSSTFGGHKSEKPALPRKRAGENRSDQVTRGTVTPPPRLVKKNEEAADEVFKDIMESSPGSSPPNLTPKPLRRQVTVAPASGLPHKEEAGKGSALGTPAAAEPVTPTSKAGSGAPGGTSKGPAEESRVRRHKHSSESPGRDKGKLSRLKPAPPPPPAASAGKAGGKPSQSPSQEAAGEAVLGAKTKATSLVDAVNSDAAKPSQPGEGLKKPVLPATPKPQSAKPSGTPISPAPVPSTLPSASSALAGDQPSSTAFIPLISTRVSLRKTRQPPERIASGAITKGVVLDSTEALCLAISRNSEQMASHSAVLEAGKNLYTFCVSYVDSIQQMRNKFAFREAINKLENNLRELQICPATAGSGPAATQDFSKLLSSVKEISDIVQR
Chain of Tyrosine-protein kinase ABL1 (Homo sapiens) + Ras and Rab interactor 1 (Homo sapiens) (Q13671 whole entry, looked up): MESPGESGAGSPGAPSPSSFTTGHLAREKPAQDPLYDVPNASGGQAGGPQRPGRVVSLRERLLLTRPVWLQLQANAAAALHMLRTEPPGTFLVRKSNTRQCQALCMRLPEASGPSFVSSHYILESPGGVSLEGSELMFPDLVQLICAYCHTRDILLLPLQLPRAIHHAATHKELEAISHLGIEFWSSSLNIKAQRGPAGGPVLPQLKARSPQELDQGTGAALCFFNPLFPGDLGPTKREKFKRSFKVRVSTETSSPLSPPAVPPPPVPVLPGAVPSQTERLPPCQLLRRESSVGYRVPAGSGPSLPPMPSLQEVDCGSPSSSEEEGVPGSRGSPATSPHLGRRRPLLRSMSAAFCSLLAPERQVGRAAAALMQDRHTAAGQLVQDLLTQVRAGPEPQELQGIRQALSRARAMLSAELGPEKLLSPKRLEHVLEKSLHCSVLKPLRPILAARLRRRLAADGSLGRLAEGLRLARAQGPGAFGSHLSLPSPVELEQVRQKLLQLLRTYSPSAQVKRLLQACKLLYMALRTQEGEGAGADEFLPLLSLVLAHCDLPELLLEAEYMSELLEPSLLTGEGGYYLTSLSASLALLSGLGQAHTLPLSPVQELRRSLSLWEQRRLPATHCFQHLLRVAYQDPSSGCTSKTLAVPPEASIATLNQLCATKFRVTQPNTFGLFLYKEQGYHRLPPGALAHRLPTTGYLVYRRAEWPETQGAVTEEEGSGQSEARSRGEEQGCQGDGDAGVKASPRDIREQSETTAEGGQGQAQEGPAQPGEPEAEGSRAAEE

As to `N#Cc1ccccc1Sc1ccccc1C(=O)NCC(c1ccco1)N1CCCC1` (stereo not drawn), the concentration for half-maximal inhibition (IC50) was 4.08 µM.

`O=C(Cc1ccc(NC(=O)C2CCN(C(=O)C3CCCC3)CC2)cc1)Nc1ccc(C(=O)N2CCOCC2)cc1`: the IC50 is 4.37 µM.

With `O=C(Cc1ccc(NC(=O)C2CCN(C(=O)C3CCCCC3)CC2)cc1)Nc1ccc(C(=O)N2CCOCC2)cc1`, the IC50 entry was “inactive”.

For `Cc1c(C(=O)NCC(c2ccco2)N(C)C)oc2c(Cl)cccc12` (stereo not drawn), the 50% inhibitory concentration (IC50) is 4.68 µM.

For `CSc1ccccc1OCc1cc(C(=O)N2CCNC(=O)C2)no1`, the IC50 was 5.94 µM.

As for `CN(Cc1c(F)cccc1Cl)C(=O)CNC(=O)c1ccc2c(c1)OCO2`, the IC50 is 3.77 µM.

Take `O=C(Cc1ccc(NC(=O)C2CCN(C(=O)c3ccccc3)CC2)cc1)Nc1ccc(C(=O)N2CCOCC2)cc1`: the IC50 result was “inactive”.

Consider `COc1ccc2oc(C(=O)NCC(c3ccco3)N(C)C)c(C)c2c1` (stereo not drawn), for which the IC50 was 5.19 µM.

As for `CCOC(=O)N1CCN(C(=O)Nc2ccc(NC(=O)N3CCN(C(=O)OCC)CC3)cc2)CC1`, the IC50 result was “inactive”.

For the compound `CN(CCc1ccccc1)C(=O)c1ccc(NC(=O)Cc2ccc(NC(=O)C3CCN(C(=O)C4CCCC4)CC3)cc2)cc1`, the IC50 was 5.22 µM.

For `COc1ccc(CCNc2cc(=O)[nH]c(N)n2)cc1`, the half-inhibitory concentration (IC50) was 4.01 µM.

For the compound `O=c1cc(OCc2ccccc2)cc[nH]1`, the IC50 is 0.0161 µM.

For `CC(=O)Nc1ccc(NC(=O)C2CCN(C(=O)c3cccs3)CC2)cc1`, the IC50 was 2.17 µM.

For `CCOC(=O)N1CCC(NC(=O)CCc2nc(C3=CCN(C)CC3)no2)CC1`, the IC50 was 9.41 µM.

`CN(CCc1ccccc1)C(=O)c1ccc(NC(=O)Cc2ccc(NC(=O)C3CCN(C(=O)c4ccccc4)CC3)cc2)cc1`: the concentration for half-maximal inhibition (IC50) was 8.52 µM.

`CN(C(=O)c1ccc(NC(=O)Cc2ccc(NC(=O)C3CCN(C(=O)c4ccccc4)CC3)cc2)cc1)C1CC1`: the IC50 was 2.53 µM.

As to `Cn1c(=O)c2c(nc(-n3ccnc3)n2Cc2ccc(Cl)cc2Cl)n(C)c1=O`, the half-inhibitory concentration (IC50) is 4.31 µM.

In the case of `COc1cccc(CSc2nnc(CSc3nc4nc(C)cc(C)n4n3)s2)c1`, the IC50 is 9.57 µM.

Source of the values: PubChem BioAssay AID602398 (The Scripps Research Institute Molecular Screening Center, 2012).
